Laboratory results published in patent publication US5659012A, “Peptide which binds SH2 domains of protein tyrosine phosphatase SH-PTP1” (Whitehead Institute for Biomedical Research, priority 1995, dated 1997).

How the values were obtained:
[1] = tested on: 32D cells expressing the EPO-R mutant Y429,431F; assay: Proliferation assay (3H-Thymidine incorporation), EPO-dependent proliferation; type: cell-based
Experimental: (§1) FIG. 2 is a graphic illustration of EPO-dependent proliferation of 32D cells expressing the wt EPO-R and the EPO-R mutant Y429, 431F. […] Each data point represents the mean of triplicate determinations±standard deviation.
(§2) To assess the role of SH-PTP1 in regulating proliferative signals generated by the EPO-R, the proliferation of 32D cells expressing wt EPO-R or EPO-R Y429,431F was measured. […] When grown in EPO, the half-maximal proliferation of pools of 32D cells expressing the wt EPO-R required 0.25 units EPO/ml and maximal proliferation required about 1 units/ml (FIG. 2). […] Pools of 32D cells expressing the mutant EPO-R Y429,431F achieved half-maximal proliferation in as little as 0.025 units EPO/ml, reaching a maximum rate at 0.1 units/ml (FIG. 2). At the highest EPO concentrations employed, the rate of proliferation of cell pools expressing the wt EPO-R or the EPO-R mutant Y429,431F was the same.
(§3) Proliferation assays were performed in 96 well plates with 200 μl/well. 5×10^4 32D cells/ml were seeded in the presence of indicated amounts of cytokines (EPO O--5 units/ml; IL3 0-100 units/ml). After 48 hours, 1 μCi 3H-Thymidine (DuPont NEN)/well was added for another 3 hours. The labeled cells were then harvested by a 96 well plate harvester (Scantron Instruments Inc.) and the amount of radioactively labeled DNA was quantitated in a scintillation counter.

[2] = tested on: 32D cells expressing the wt EPO-R; assay: as above; type: cell-based; conditions: pools of 32D cells expressing wt EPO-R
Experimental: as §1, §2, §3

[3] = pools of 32D cells expressing mutant EPO-R Y429,431F

Erythropoietin [EPO]
amount of EPO allowing proliferation relative to the normal amount ([1]; mutant EPO-R unable to bind SH-PTP1 versus wt EPO-R): one-fifth to one-tenth
EPO giving half-maximal proliferation [1, 3]: 0.025 units EPO/ml
EPO giving maximum rate of proliferation [1, 3]: 0.1 units/ml
EPO required for maximal proliferation [2]: about 1 units/ml
EPO required for half-maximal proliferation ([2]; 48 h + 3 h 3H-Thymidine): 0.25 units EPO/ml
